Test results: PMC6835155, “Lessons from LIMK1 enzymology and their impact on inhibitor design” (Biochemical Journal, 2019)
Like-named read-outs stand apart in the source and are kept apart here.

Experiments:
LIMK2KD = biological target: T1, LIMK2KD (Homo sapiens, UniProt P53671); assay: Differential (dynamic) scanning fluorimetry (DSF) assay, LIMK2KD; format: binding; settings: for ΔTm at 10 µM: read-out: TM Shift LIMK2 (K)
T1 construct: The cDNA coding for LIMK2 residues 330 to 632 was PCR amplified; His6 (N, cleaved yes); made in house; host or cells: baculovirus; Sf9 for virus, TriEx insect cells for expression

LIMK1KD = biological target: T2, LIMK1KD (Homo sapiens, UniProt P53667); assay: Differential (dynamic) scanning fluorimetry (DSF) assay, LIMK1KD; format: binding; settings: for ΔTm at 10 µM: read-out: TM Shift LIMK1 (K)
T2 construct: His6 (N, cleaved yes); made in house; host or cells: baculovirus; Sf9 for virus, TriEx insect cells for expression

[1] = LIMK2KD, compound 10 µM, single shot
[2] = 2 µM LIMK1KD, compound 10 µM, single shot
[3] = LIMK2KD, compound 10 µM, single shot, 10 µM

T1 sequence (P53671 330-632): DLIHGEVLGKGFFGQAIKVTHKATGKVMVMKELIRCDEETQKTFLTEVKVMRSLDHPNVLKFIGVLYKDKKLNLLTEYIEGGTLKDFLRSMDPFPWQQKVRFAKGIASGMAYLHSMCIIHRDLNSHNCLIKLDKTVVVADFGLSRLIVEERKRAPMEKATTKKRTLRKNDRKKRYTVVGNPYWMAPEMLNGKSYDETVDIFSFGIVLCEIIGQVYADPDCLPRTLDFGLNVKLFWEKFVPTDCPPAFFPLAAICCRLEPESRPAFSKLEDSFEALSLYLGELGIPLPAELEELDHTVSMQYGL
T2 sequence (P53667 330-637): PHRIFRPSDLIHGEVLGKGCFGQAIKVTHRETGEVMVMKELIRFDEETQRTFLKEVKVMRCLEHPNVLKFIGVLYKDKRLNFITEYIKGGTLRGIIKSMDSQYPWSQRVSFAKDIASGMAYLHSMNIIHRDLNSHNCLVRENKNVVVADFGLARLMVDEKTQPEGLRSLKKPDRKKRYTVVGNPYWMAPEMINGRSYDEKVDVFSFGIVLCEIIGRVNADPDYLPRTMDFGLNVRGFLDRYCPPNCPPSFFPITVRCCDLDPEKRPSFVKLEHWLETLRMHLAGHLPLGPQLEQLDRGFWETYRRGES

| Compound | ΔTm at 10 µM (LIMK2KD; [1]) [°C] | ΔTm at 10 µM (LIMK1KD; [2]) [°C] | TM Shift LIMK2 (K) (LIMK2KD; [1]) | TM Shift LIMK1 (K) (LIMK1KD; [2]) | also measured |
| --- | --- | --- | --- | --- | --- |
| O=C(Nc1cccc(Nc2ncc(Br)c(NCCc3cnc[nH]3)n2)c1)N1CCCC1 [BX-912] | – | – | 2.8 | 3.6 | – |
| Cc1c(CN2CCN(C(=O)[C@H](C)O)CC2)sc2c(N3CCOCC3)nc(-c3cnc(N)nc3)nc12 [Apitolisib] | 0.6 | 1.6 | – | – | – |
| COc1cc(N2CCC(N3CCN(C)CC3)CC2)ccc1Nc1ncnc(Nc2ccccc2S(=O)(=O)C(C)C)n1 [ASP3026] | 1.4 | 3.7 | – | – | – |
| N#Cc1ccc2[nH]c(O)c(-c3ccc(CN4CCOCC4)cn3)c2c1 [AZD1080] | 2.3 | 0.5 | – | – | – |
| C=CC(=O)Nc1cccc(Nc2nc(Nc3ccc(N4CCN(C(C)=O)CC4)cc3OC)ncc2C(F)(F)F)c1 [CO-1686 (AVL-301)] | -0.4 | 0.4 | – | – | – |
| Cc1ccc(NC(=O)c2ccc(CN3CC[C@H](N(C)C)C3)c(C(F)(F)F)c2)cc1Nc1nccc(-c2cncnc2)n1 [Bafetinib] | 1.1 | 2.5 | – | – | – |
| CN(C)Cc1cccc(N/C(=C2\C(=O)Nc3cc(C(N)=O)ccc32)c2ccccc2)c1 [BIX 02188] | -0.1 | 1.7 | – | – | – |
| CC(C)(C)NS(=O)(=O)c1cncc(-c2cc(F)c3nc(N)nn3c2)c1 [CZC24832] | -0.1 | -0.4 | – | – | – |
| O=C1NC(=O)/C(=C/c2ccc3c(c2)OC(F)(F)O3)S1 [AS-604850] | – | – | 2.2 | 0.3 | – |
| Cc1cc(CN2CCN(c3c(Br)cnc4nc(-c5ccc(N6CCN(C)CC6)cc5)[nH]c34)CC2)no1 [CCT137690] | – | – | 3.5 | 3.4 | – |
| COc1cc(OC2CCN(C)CC2)ccc1Nc1ncc2c(n1)n(C1CCCC1)c(=O)n2C [AZ3146] | 0 | 0.4 | – | – | – |
| CC(C)(C)c1cc(C=C(C#N)C#N)cc(C(C)(C)C)c1O [Tyrphostin 9] | – | – | 6.3 | 3.5 | – |
| CC[C@H](CO)Nc1nc(NCc2ccccc2)c2ncn(C(C)C)c2n1 [Seliciclib] | – | – | – | 0.1 | TM Shift LIMK2 (K) (LIMK2KD; [3]): 0.0 K; TM Shift LIMK2 (K) (LIMK2KD; LIMK2KD, compound 10 µM, single shot, listed as Roscovitine (Seliciclib,CYC202), 10 µM): -1.3 K; TM Shift LIMK1 (K) (LIMK1KD; 2 µM LIMK1KD, compound 10 µM, single shot, listed as Roscovitine (Seliciclib,CYC202)): -0.4 K |
| CN(C)Cc1cccc(N/C(=C2\C(=O)Nc3cc(C(=O)N(C)C)ccc32)c2ccccc2)c1 [BIX 02189] | – | – | 4.5 | 0.1 | – |
| COc1ccc2cc(-c3nc(-c4ccc([S+](C)[O-])cc4)[nH]c3-c3ccncc3)ccc2c1 (stereo not drawn) [Tie2 kinase inhibitor] | – | – | 1.4 | 1.3 | – |
| CHIR-98014 | – | – | – | – | TM Shift LIMK2 (K) (LIMK2KD; 10 µM): 0.0 K; TM Shift LIMK1 (K) (LIMK1KD): 5.0 K |
| Cc1cnc(Nc2ccc(F)cc2Cl)nc1-c1c[nH]c(C(=O)N[C@H](CO)c2cccc(Cl)c2)c1 [VX-11E] | – | – | -1.6 | 0.0 | – |
| Cn1cnc(N)c2ncnc1-2 [3-Methyladenine] | 0.5 | 0.4 | – | – | – |
| CC(C)CCN1c2nc(Nc3cc(F)c(O)c(F)c3)ncc2N(C)C(=O)C1C (stereo not drawn) [BI-D1870] | – | – | 3.9 | 2.2 | – |
| Cc1nc(N)sc1-c1ccnc(Nc2ccc(N3CCOCC3)cc2)n1 [CYC116] | 1.6 | 3.7 | – | – | – |
| Nc1nccc(Oc2ccc(NC(=O)c3c[nH]cc(-c4ccc(F)cc4)c3=O)cc2F)c1Cl [BMS-794833] | 2 | 1.5 | – | – | – |
| CCn1c(-c2nonc2N)nc2cnc(Oc3cccc(NC(=O)c4ccc(OCCN5CCOCC5)cc4)c3)cc21 [GSK269962] | – | – | 0.1 | 1.0 | – |
| NC1(Cc2ccc(Cl)cc2)CCN(c2ncnc3[nH]ccc23)CC1 [CCT128930] | – | – | 1.0 | 0.4 | – |
| O=C(Nc1c[nH]nc1-c1nc2ccc(CN3CCOCC3)cc2[nH]1)NC1CC1 [AT9283] | 4 | 9 | – | – | – |
| CC(=O)Nc1nc(C)c(-c2ccc(Cl)c(S(=O)(=O)NCCO)c2)s1 [PIK-93] | – | – | – | – | TM Shift LIMK2 (K) (LIMK2KD; 10 µM): 1.7 K; TM Shift LIMK1 (K) (LIMK1KD): 1.0 K |

Now from value to compound, other results behind:

| ΔTm at 10 µM (LIMK2KD; [1]) [°C] | ΔTm at 10 µM (LIMK1KD; [2]) [°C] | TM Shift LIMK2 (K) (LIMK2KD; [1]) | TM Shift LIMK1 (K) (LIMK1KD; [2]) | Compound | also measured |
| --- | --- | --- | --- | --- | --- |
| -0.4 | 1.9 | – | – | COc1cc2c(Oc3ccc(NC(=O)C4(C(=O)Nc5ccc(F)cc5)CC4)cc3F)ccnc2cc1OCCCN1CCOCC1 [Foretinib (GSK1363089), Foretinib] | – |
| – | – | 0.9 | 0.5 | CNC(=O)Nc1ccc(-c2nc(N3CC4CCC(C3)O4)c3cnn(C4CCC5(CC4)OCCO5)c3n2)cc1 [WYE-125132 (WYE-132)] | – |
| – | – | -0.4 | -0.2 | O=C1NC(=O)/C(=C/c2cccc(C(F)(F)F)c2)S1 [SMI-4a] | – |
| 1.4 | 3.9 | – | – | C[C@@H](Oc1cc(-c2cnn(C3CCNCC3)c2)cnc1N)c1c(Cl)ccc(F)c1Cl [Crizotinib (PF-02341066), Crizotinib] | – |
| – | – | 1.3 | 0.7 | CN1CCC(c2c(O)cc(O)c3c(=O)cc(-c4ccccc4Cl)oc23)C1CO (stereo not drawn) [P276-00] | – |
| – | – | 10.6 | 0.0 | COc1ccc(COc2cc3oc(=O)c4cc(C(C)O)ccc4c3cc2OC)cc1 (stereo not drawn) [Palomid 529 (P529)] | – |
| – | – | 5.2 | 3.1 | C=CC(=O)Nc1cccc(Sc2nc(Nc3ccc(N4CCN(C)CC4)cc3)ncc2Cl)c1 [WZ8040] | – |
| 1 | – | – | 0.8 | Cc1ccc(NC(=O)c2ccc(CN3CCN(C)CC3)cc2)cc1Nc1nccc(-c2cccnc2)n1 [Imatinib (STI571), Imatinib] | – |
| 1.2 | 1.1 | – | – | CCN(CC)CCCCNc1ncc2cc(-c3cc(OC)cc(OC)c3)c(NC(=O)NC(C)(C)C)nc2n1 [PD173074] | – |
| 0.4 | -0.1 | – | – | COc1ccc(Cl)c(Nc2nc3ccccc3nc2NS(=O)(=O)c2cccc(NC(=O)C(C)(C)N)c2)c1 [Pilaralisib] | – |
| – | – | -0.2 | 1.5 | COc1cc2ncnc(Nc3ccc(O)c(Br)c3)c2cc1OC [WHI-P154] | – |
| – | – | – | 0.1 | Cc1cnc(NC(=O)Nc2cc(Br)c(C)cc2OC[C@@H]2CNCCO2)cn1 [LY2603618] | TM Shift LIMK2 (K) (LIMK2KD; [3]): 0.7 K |
| – | – | -0.3 | 1.7 | O=C(Cc1ccc(-c2ccc(OCCN3CCOCC3)cc2)cn1)NCc1ccccc1 [KX2-391] | – |
| 0.2 | 0.9 | – | – | COc1cc2ncnc(Nc3ccc(F)c(Cl)c3)c2cc1NC(=O)/C=C/CN1CCCCC1 [Dacomitinib (PF299804, PF299), Dacomitinib] | – |
| – | – | 0.9 | 1.7 | O=C1NC(=O)C(c2ccccc2[N+](=O)[O-])=C1Nc1ccc(O)c(Cl)c1 [SB415286] | – |
| 0.1 | 2.5 | – | – | C[C@@H](Oc1ccc2[nH]nc(/C=C/c3cnn(CCO)c3)c2c1)c1c(Cl)cncc1Cl [LY2874455] | – |

| ΔTm at 10 µM (LIMK2KD; [1]) [°C] | ΔTm at 10 µM (LIMK1KD; [2]) [°C] | TM Shift LIMK2 (K) (LIMK2KD; [1]) | TM Shift LIMK1 (K) (LIMK1KD; [2]) | Compound | also measured |
| --- | --- | --- | --- | --- | --- |
| – | – | 1.4 | -0.4 | Oc1ccc(Nc2nc(-c3ccc(Cl)cc3)cs2)cc1 [SKI II] | – |
| 1.8 | 0.2 | – | – | CS(=O)(=O)CCNCc1ccc(-c2ccc3ncnc(Nc4ccc(OCc5cccc(F)c5)c(Cl)c4)c3c2)o1 [Lapatinib (GW-572016) Ditosylate, Lapatinib] | – |
| 0.4 | -0.2 | – | – | Nc1ncnc2c1c(-c1cccc(OCc3ccccc3)c1)cn2[C@H]1C[C@@H](CN2CCC2)C1 [NVP-AEW541] | – |
| 0.4 | 5 | – | – | CCc1cccc(CC)c1NC(=O)N1Cc2n[nH]c(NC(=O)c3ccc(N4CCN(C)CC4)cc3)c2C1 [PHA-680632] | – |
| 0 | -0.7 | – | – | OCCn1cc(-c2ccc3c(c2)CC/C3=N\O)c(-c2ccncc2)n1 [GDC-0879] | – |
| 0.6 | -0.3 | – | – | CCc1cnn2c(NCc3ccc[n+]([O-])c3)cc(N3CCCC[C@H]3CCO)nc12 [Dinaciclib (SCH727965), Dinaciclib] | – |
| – | – | – | 1.0 | CCn1c(=O)c(-c2cc[nH]n2)cc2c(C)nc(N)nc21 [SAR245409 (XL765)] | TM Shift LIMK2 (K) (LIMK2KD; [3]): 6.6 K |
| 0.3 | 0.5 | – | – | CC[C@@H]1C(=O)N(C)c2cnc(Nc3ccc(C(=O)N[C@H]4CC[C@H](N5CCN(CC6CC6)CC5)CC4)cc3OC)nc2N1C(C)C [Volasertib (BI 6727), Volasertib] | – |
| – | – | 3.8 | 0.6 | Nc1ccc(C(=O)Nc2cccc(-c3nc(N4CCOCC4)c4oc5ncccc5c4n3)c2)cn1 [YM201636] | – |
| 5 | 2 | – | – | Cc1ccc(F)c(NC(=O)Nc2ccc(-c3cccc4[nH]nc(N)c34)cc2)c1 [Linifanib] | – |
| 0.7 | 0 | – | – | CNC(=O)c1cc(Oc2ccc(NC(=O)Nc3ccc(Cl)c(C(F)(F)F)c3)c(F)c2)ccn1 [Regorafenib (BAY 73-4506), Regorafenib] | – |
| – | – | 0.2 | 0.7 | Oc1ccc(-c2nc(-c3ccc(F)cc3)c(-c3ccncc3)[nH]2)cc1 [SB202190 (FHPI)] | – |
| 2.6 | 1.4 | – | – | O=C1Nc2ccccc2/C1=C1/Nc2ccccc2C1=O [Indirubin] | – |
| 0.8 | 1.2 | – | – | CN1CCN(CCOc2cc(OC3CCOCC3)c3c(Nc4c(Cl)ccc5c4OCO5)ncnc3c2)CC1 [Saracatinib (AZD0530), Saracatinib] | – |
| -0.2 | 1.4 | – | – | Cc1[nH]c(/C=C2\C(=O)Nc3ccc(S(=O)(=O)N(C)c4cccc(Cl)c4)cc32)c(C)c1C(=O)N1CCN(C)CC1 [SU11274] | – |
